In brackets after ≈: the same amount, converted by molar mass. Some results are limits rather than exact numbers.

By Ki is commonly meant a measure of affinity in units of concentration, obtained from inhibition or displacement. One may read the IC50 as the concentration at which inhibition is half-maximal.

The nature of data set [1]: Metabolic stability in human liver microsomes assessed as parent compound remaining at 1 uM measured at 15 mins in presence of phase 1 metabolism cofactors by LC-MS/MS analysis. It counts as ADME, Microsome. The note with it: read-out: Stability. (Liver microsomes are vesicles of endoplasmic reticulum, rich in cytochrome P450 enzymes.)
A short description of data set [2]: Hepatic intrinsic clearance in human Hepatocytes assessed per at 1 uM measured upto 90 mins by LC-MS/MS analysis. Format: ADME, cell-based, Hepatocyte. The note with it: 1.5 h.
Data set [3] concerns the target Serine/threonine-protein kinase mTOR (Homo sapiens, UniProt P42345). The experiment in a line: Inhibition of human recombinant GST-tagged mTOR catalytic domain (1360 to 2549 residues) expressed in baculovirus expression system using GFP-4E-BP1 peptide as substrate incubated for 1 hr by LanthaScreen assay. (In general: Time-resolved FRET reads energy transfer from a long-lived donor to a nearby acceptor.)

The target of a further data set is mTORC1 (Homo sapiens, UniProt P42345). The experiment in a line: Inhibition of mTORC1 in human A431 cells assessed as S6RP phosphorylation incubated for 3 hrs by HTRF assay. It counts as cell-based.
For another data set, the target named is mTORC2 (Homo sapiens, UniProt P42345). As to the kind of experiment: Inhibition of mTORC2 in human A431 cells assessed as AKT phosphorylation at S473 residue incubated for 3 hrs by HTRF assay. Format: cell-based.
Data set [4] in a line: Kinetic aqueous solubility of compound in phosphate buffer at pH 7.4 at 100 uM at 20 degree C shaken for 24 hrs by HPLC analysis. Format: physicochemical. The note with it: read-out: Kinetic_solubility.
Data set [5] concerns the target Phosphatidylinositol 4,5-bisphosphate 3-kinase catalytic subunit alpha isoform (Homo sapiens, UniProt P42336).
Description: Inhibition of PI3Kalpha (unknown origin) using PIP2 as substrate measured after 30 mins by TR-FRET assay
Data set [6] in a line: Lipophilicity, ChromlogD of compound at 0.5 mM at pH 6.5 by UPLC-UV analysis. The note with it: buffer, pH 6.5, 500 µM.

Chain of Phosphatidylinositol 4,5-bisphosphate 3-kinase catalytic subunit alpha isoform (P42336 whole entry, canonical isoform): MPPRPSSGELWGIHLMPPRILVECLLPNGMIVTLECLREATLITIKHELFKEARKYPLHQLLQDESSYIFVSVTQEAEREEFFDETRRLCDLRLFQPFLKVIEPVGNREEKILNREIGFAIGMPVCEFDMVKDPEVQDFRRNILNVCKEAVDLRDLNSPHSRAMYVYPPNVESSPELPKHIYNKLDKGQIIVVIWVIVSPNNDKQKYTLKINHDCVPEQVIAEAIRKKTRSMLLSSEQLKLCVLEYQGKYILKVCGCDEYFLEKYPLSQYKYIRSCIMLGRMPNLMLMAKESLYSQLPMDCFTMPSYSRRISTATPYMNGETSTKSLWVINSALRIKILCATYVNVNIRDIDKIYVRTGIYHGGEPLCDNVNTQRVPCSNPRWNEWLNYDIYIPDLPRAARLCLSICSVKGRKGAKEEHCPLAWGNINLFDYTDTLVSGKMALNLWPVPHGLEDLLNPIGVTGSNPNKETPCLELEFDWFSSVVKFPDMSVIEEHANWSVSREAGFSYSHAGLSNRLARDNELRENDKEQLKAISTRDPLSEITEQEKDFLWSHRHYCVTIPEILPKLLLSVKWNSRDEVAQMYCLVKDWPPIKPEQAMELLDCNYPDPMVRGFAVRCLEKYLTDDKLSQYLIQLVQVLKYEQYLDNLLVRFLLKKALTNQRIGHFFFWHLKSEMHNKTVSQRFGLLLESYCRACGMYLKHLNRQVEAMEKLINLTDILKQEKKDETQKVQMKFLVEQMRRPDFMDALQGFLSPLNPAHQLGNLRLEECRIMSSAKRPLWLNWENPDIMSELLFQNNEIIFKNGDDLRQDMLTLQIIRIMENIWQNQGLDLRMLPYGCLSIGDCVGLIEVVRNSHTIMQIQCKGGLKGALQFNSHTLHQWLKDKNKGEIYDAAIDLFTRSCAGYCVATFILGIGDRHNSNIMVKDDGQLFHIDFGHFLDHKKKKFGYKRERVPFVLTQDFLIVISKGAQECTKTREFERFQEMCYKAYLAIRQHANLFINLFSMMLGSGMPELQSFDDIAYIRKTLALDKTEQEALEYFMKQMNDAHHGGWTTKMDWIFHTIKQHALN

With `CC(C)n1nc(-c2ccc3oc(N)nc3c2)c2c(Br)nc(N)nc21`, in data set [1], the remaining at 0.25 h, 1 µM was found to be 94%. Further, in data set [2], the CLH turned out to be 55 µL/min. The Ki worked out at 0.021 µM in data set [3] and 1 µM in data set [5]. Also, the values for the IC50 at mTORC1 and on mTORC2 were 0.035 µM and 0.06 µM, respectively. Moreover, the solubility kinetic at 24 h, 100 µM in data set [4] amounted to 4 µM (≈ 1.55 µg/mL). In addition, the ChromlogD6.5 in data set [6] stood at 1.8.
For `CCCCn1nc(-c2ccc3oc(N)nc3c2)c2c(Cl)nc(N)nc21`, the values for the Ki in data set [3] and in data set [5] were 0.011 µM and 4.6 µM, respectively. Besides, the IC50 at mTORC1 came out at 0.007 µM; at mTORC2, 0.02 µM. For the same compound, the solubility kinetic at 24 h, 100 µM in data set [4] was less than 1 µM. For the same compound, the ChromlogD6.5 in data set [6] is given as 2.3.
As for `Cc1nc2c(c(-c3ccc4oc(N)nc4c3)nn2C(C)C)c(=O)[nH]1`, the remaining at 0.25 h, 1 µM in data set [1] was more than 95%. Further, the CLH in data set [2] was less than 5 µL/min. Besides, the Ki was 0.04 µM in data set [3] and more than 10 µM in data set [5]. Further, the IC50 at mTORC1 was found to be 0.045 µM; at mTORC2 it was 0.09 µM. In addition, the solubility kinetic at 24 h, 100 µM in data set [4] is 3 µM (≈ 0.973 µg/mL). Moreover, in data set [6], the ChromlogD6.5 was found to be 1.2.
`CCc1nc(N)nc2c1c(-c1ccc3oc(N)nc3c1)nn2C(C)C`: the remaining at 0.25 h, 1 µM in data set [1] came to 93%. This compound displayed a CLH in data set [2] of less than 5 µL/min. Besides, the Ki in data set [3] came to 0.05 µM; in data set [5] it was 0.085 µM. Moreover, the results for the IC50 at mTORC1 and on mTORC2 were 0.06 µM and 0.14 µM, respectively. Further, the solubility kinetic at 24 h, 100 µM in data set [4] was 62 µM (≈ 20.9 µg/mL). In data set [6], this compound gave a ChromlogD6.5 of 1.2.
In the case of `CC(C)n1nc(-c2ccc3oc(N)nc3c2)c2c(C(F)(F)F)nc(N)nc21`, the remaining at 0.25 h, 1 µM in data set [1] was more than 95%. The CLH in data set [2] was less than 5 µL/min. The Ki is 2.3 µM in data set [3] and more than 10 µM in data set [5]. Moreover, the solubility kinetic at 24 h, 100 µM in data set [4] was less than 1 µM. For the same compound, in data set [6], the ChromlogD6.5 is given as 2.4.
Take `CC(C)n1nc(-c2ccc3oc(N)nc3c2)c2cnc(N)nc21`: the remaining at 0.25 h, 1 µM in data set [1] is 94%. In addition, the CLH in data set [2] is 150 µL/min. Also, the results for the Ki in data set [3] and in data set [5] were 0.006 µM and 0.78 µM, respectively. Also, the IC50 at mTORC1 is 0.007 µM; on mTORC2, 0.015 µM. Further, the solubility kinetic at 24 h, 100 µM in data set [4] came to 1.6 µM (≈ 0.495 µg/mL). The ChromlogD6.5 in data set [6] is 1.1.
`Cc1nc(N)nc2c1c(-c1ccc3oc(N)nc3c1)nn2C(C)C`: the remaining at 0.25 h, 1 µM in data set [1] is more than 95%. The compound also registered a CLH in data set [2] of less than 5 µL/min. Moreover, the values for the Ki in data set [3] and in data set [5] were 0.062 µM and 0.99 µM, respectively. In addition, the IC50 at mTORC1 is 0.04 µM; on mTORC2, 0.2 µM. For the same compound, the solubility kinetic at 24 h, 100 µM in data set [4] is 74 µM (≈ 23.9 µg/mL). Moreover, in data set [6], the ChromlogD6.5 turned out to be 0.8.
Regarding `CCCCn1nc(-c2ccc3oc(N)nc3c2)c2c(C)nc(N)nc21`, the Ki in data set [3] worked out at 0.033 µM; in data set [5], 2.2 µM. In addition, the IC50 on mTORC1 came out at 0.03 µM; on mTORC2, 0.09 µM. Further, the solubility kinetic at 24 h, 100 µM in data set [4] was found to be 5.2 µM (≈ 1.75 µg/mL). The ChromlogD6.5 in data set [6] was 1.4.
`CC(C)n1nc(-c2ccc3oc(N)nc3c2)c2c(F)nc(N)nc21`: the remaining at 0.25 h, 1 µM in data set [1] was found to be 83%. The same compound returned a CLH in data set [2] of 57 µL/min. Moreover, the Ki in data set [3] amounted to 0.013 µM; in data set [5] it was 2.6 µM. For the same compound, the IC50 at mTORC1 is 0.04 µM; on mTORC2 it was 0.08 µM. Further, the solubility kinetic at 24 h, 100 µM in data set [4] was less than 1 µM. In data set [6], this compound returned a ChromlogD6.5 of 1.8.
Consider `CC(C)n1nc(-c2ccc3oc(N)nc3c2)c2c(CO)nc(N)nc21`, for which the remaining at 0.25 h, 1 µM in data set [1] is more than 95%. This compound displayed a CLH in data set [2] of less than 5 µL/min. Further, the Ki in data set [3] was 4 µM; in data set [5], more than 10 µM. Further, in data set [4], the solubility kinetic at 24 h, 100 µM worked out at 82 µM (≈ 27.8 µg/mL). In data set [6], this compound registered a ChromlogD6.5 of 0.2.
Consider `COc1nc(N)nc2c1c(-c1ccc3oc(N)nc3c1)nn2C(C)C`, for which the remaining at 0.25 h, 1 µM in data set [1] was more than 95%. In addition, the Ki is 0.37 µM in data set [3] and 0.25 µM in data set [5]. Moreover, the results for the IC50 on mTORC1 and at mTORC2 were 0.42 µM and 0.68 µM, respectively. In addition, in data set [4], the solubility kinetic at 24 h, 100 µM is less than 1 µM. Moreover, in data set [6], the ChromlogD6.5 came to 1.6.
As to `CC(C)n1nc(-c2ccc3oc(N)nc3c2)c2c(Cl)nc(N)nc21`, the remaining at 0.25 h, 1 µM in data set [1] stood at 92%. Further, the CLH in data set [2] stood at 11 µL/min. Also, the results for the half-inhibitory concentration (IC50) at mTORC1 and at mTORC2 were 0.008 µM and 0.02 µM, respectively. Besides, the solubility kinetic at 24 h, 100 µM in data set [4] was 2 µM (≈ 0.688 µg/mL). This compound registered a Ki in data set [5] of 0.92 µM. The compound also yielded a ChromlogD6.5 in data set [6] of 1.7.
For the compound `CC(C)n1nc(-c2ccc3oc(N)nc3c2)c2c(=O)[nH]c(N(C)C)nc21`, the remaining at 0.25 h, 1 µM in data set [1] turned out to be 90%. Also, the CLH in data set [2] was less than 5 µL/min. In addition, the Ki in data set [3] was 1.7 µM; in data set [5] it was more than 10 µM. Besides, the solubility kinetic at 24 h, 100 µM in data set [4] came to 2 µM (≈ 0.707 µg/mL). Further, the ChromlogD6.5 in data set [6] worked out at 2.1.
Turning to `CC(C)n1nc(-c2ccc3oc(N)nc3c2)c2c(C#N)nc(N)nc21`, the remaining at 0.25 h, 1 µM in data set [1] is more than 95%. The compound also returned a CLH in data set [2] of less than 5 µL/min. The Ki in data set [3] was 2.2 µM; in data set [5] it was more than 10 µM. Moreover, the solubility kinetic at 24 h, 100 µM in data set [4] is less than 1 µM. Besides, the ChromlogD6.5 in data set [6] was found to be 1.8.
Regarding `CC(C)n1nc(-c2ccc3oc(N)nc3c2)c2c(N)ncnc21` [SAPANISERTIB], the remaining at 0.25 h, 1 µM in data set [1] is more than 95%. In data set [2], this compound displayed a CLH of less than 5 µL/min. The solubility kinetic at 24 h, 100 µM in data set [4] is 82 µM (≈ 25.4 µg/mL). The compound further yielded a ChromlogD6.5 in data set [6] of 0.4.
Turning to `CNc1nc2c(c(-c3ccc4oc(N)nc4c3)nn2C(C)C)c(=O)[nH]1`, the remaining at 0.25 h, 1 µM in data set [1] is more than 95%. For the same compound, the CLH in data set [2] was less than 5 µL/min. Also, the Ki in data set [3] is 0.19 µM; in data set [5] it was more than 10 µM. The IC50 was 0.24 µM on mTORC1 and 0.36 µM at mTORC2. The solubility kinetic at 24 h, 100 µM in data set [4] was less than 1 µM. The compound further came in with a ChromlogD6.5 in data set [6] of 1.5.
`CC(C)n1nc(-c2ccc3oc(N)nc3c2)c2c(=O)[nH]c(N)nc21`: in data set [1], the remaining at 0.25 h, 1 µM was more than 95%. Moreover, the CLH in data set [2] was less than 5 µL/min. Besides, the Ki in data set [3] worked out at 0.02 µM; in data set [5], 3.2 µM. The IC50 came to 0.04 µM at mTORC1 and 0.2 µM at mTORC2. Further, the solubility kinetic at 24 h, 100 µM in data set [4] was 9.2 µM (≈ 2.99 µg/mL). The compound further returned a ChromlogD6.5 in data set [6] of 0.4.
Regarding `CC(C)n1nc(-c2ccc3oc(N)nc3c2)c2c(N)nc(N)nc21`, in data set [1], the remaining at 0.25 h, 1 µM was more than 95%. In data set [2], this compound yielded a CLH of less than 5 µL/min. In addition, the Ki came to 0.004 µM in data set [3] and 0.15 µM in data set [5]. In addition, the IC50 on mTORC1 turned out to be 0.004 µM; at mTORC2, 0.011 µM. Besides, in data set [4], the solubility kinetic at 24 h, 100 µM came to 88 µM (≈ 28.5 µg/mL). The ChromlogD6.5 in data set [6] is given as -0.1.
